Assay results: PMC9605072, “Guanidine Derivatives of Quinazoline-2,4(1H,3H)-Dione as NHE-1 Inhibitors and Anti-Inflammatory Agents” (Life, 2022)
“Also recorded” adds a separate entry of the source.

Columns and labels:
[1] = system: LPS-stimulated C57bl/6j peritoneal macrophages; assay: LPS-induced nitric oxide synthesis in primary peritoneal macrophages (Griess); type: cell-based, mice; settings: Mus musculus, Peritoneal macrophage, LPS 100 ng/mL, 22 h incubation, n = 3; for IC50: read-out: NO Synthesis IC50 ± SE
Description: (§1) Primary C57bl/6j murine macrophages were elicited with intraperitoneal injection of 3% peptone solution as per the standard procedure. Stimulation of inflammatory response was performed with E. coli O127:B8 LPS (100 ng/mL final concentration).
(§2) Nitric oxide was determined in culture supernatants as a nitrite anion with a standard Griess reagent after 22 h of incubation with test compounds at a wavelength of 550 nm with a microplate reader Infinite M200 PRO (Tecan GmbH, Grodig, Austria). Concentrations of IL-6 and TNF- α in cell supernatants were quantified with commercial ELISA kits according to the manufacturer’s instructions (Cloud-clone Corp., Katy, TX, USA).
(§3) Given our primary focus on the development of agents against cytokine-mediated tissue damage, we evaluated the target compounds as inhibitors of pro-inflammatory macrophage activation. Primary peritoneal macrophages were isolated from C57bl/6j mice, pooled, and stimulated with E. coli LPS as TLR4 agonist. Pro-inflammatory activation was assessed as nitric oxide (NO) synthesis and interleukin-6 (IL-6) secretion. The cytotoxicity of the compounds was monitored in parallel using the lactate dehydrogenase assay.

[2] = system: LPS-stimulated C57bl/6j peritoneal macrophages; assay: LPS-induced IL-6 secretion in primary peritoneal macrophages (ELISA); type: cell-based, mice; settings: Mus musculus, Peritoneal macrophage; LPS 100 ng/mL; n = 3; read-out: IL-6 Secretion IC50 ± SE
Description: as §1, §2, §3

[3] = Cytotoxicity, lactate dehydrogenase (LDH) assay; type: cell-based, mice; settings: C57bl/6j, mouse, primary peritoneal macrophages stimulated with E. coli LPS; LPS-stimulated macrophages; n = 3; read-out: LDH CC50 ± SE
Description: (§4) The activity of lactate dehydrogenase (LDH) in a cell culture medium was determined as reported by us previously with a microplate reader Infinite M200 PRO (Tecan, Austria).
as §3
(§5) In an attempt to identify safer alternatives to steroid anti-inflammatory agents, it is mandatory to evaluate lead compounds for immunodepressant activity. To do so, we determined the influence of compound 4a on macrophage phagocytosis after 72 h of incubation. Cell viability was monitored in parallel via the LDH assay.

[4] = system: male ICR mice; assay: Tail suspension test (antidepressant activity); type: in vivo; settings: mean ± SD, n = 6, vehicle 264.8 ± 11.6 s
Description: Antidepressant activity was determined on 36 male ICR mice weighing 22–25 g as described in [14] using the Panlab LE808 apparatus.
The tail suspension test was used to assess the antidepressant activity of the most-active NHE-1 inhibitors.

[5] = biological target: T1, rabbit platelet NHE-1 (Oryctolagus cuniculus, UniProt P23791); assay: NHE-1 inhibition assay (rabbit platelets, laser aggregometer); type: cell-based; settings: for inhibition at 0.01 µM: 10 nM, m ± SD, n = 6
T1 construct: endogenous in cells; host or cells: rabbit platelets
Description: Inhibition of rabbit platelet NHE-1 was determined according to the method of [8, 9] in our modification, which was reported by us previously using the laser aggregometer BIOLA-220 LA (Russia).
Target compounds were evaluated as inhibitors of rabbit platelet NHE-1 (Table 1). It was shown that the substitution of H^5 with bromine decreased the activity of compounds 3b and 4b, indicating possible steric limitations of the binding site.

[6] = system: rabbit platelets; assay: ADP-induced platelet aggregation assay; type: cell-based; settings: Oryctolagus cuniculus, m ± SD, n = 5
Description: Platelet aggregation was assessed on a two-channel laser analyzer “BIOLA-220 LA” (Russia) as described previously using rabbit platelets.

[7] = system: rat intraocular pressure; assay: Intraocular pressure study (TonoVet); type: in vivo; settings: rats, 0.4% eye drops; for Max IOP Reduction: m ± SD, n = 5; for IOP-lowering activity reduction relative to 4a: vs 4a
Description: Intraocular pressure was measured on 75 adult outbred rats of both sexes with a TonoVet device (Finland) as reported by us previously.
To access the influence on rat eye aqueous humor formation, the studied compounds were administered as 0.4% eye drops. […] Introduction of 5-bromine (4b) or acyclic guanidine N^1 , N^3 -side chains (3a) led to 2- and 3-fold activity reduction, respectively.

[8] = system: C57bl/6j peritoneal macrophages; assay: Cytotoxicity, lactate dehydrogenase (LDH) assay; type: cell-based, mice; settings: 72 h of incubation, in parallel to phagocytosis
Description: as §4, §3, §5

[9] = system: C57bl/6j peritoneal macrophages; assay: Macrophage phagocytosis assay; type: cell-based, mice; settings: for Macrophage spreading (visually scored): yeast-treated macrophages, 72 h
Description: The phagocytic activity of peritoneal macrophages was assessed after staining with Azur-Eosin with Romanovsky’s modifications as reported by us previously with a light microscopy using a Mikmed-6 (LOMO, Saint Petersburg, Russia) equipped with a digital camera.
as §5
(Figure 3). The mean number of phagocytosed particles per cell was […]. […] Macrophage spreading was registered and visually scored as a phenotypic marker of cell activation phagocytic capacity.

[10] = system: C57bl/6j mice; assay: LPS-induced acute lung injury model; type: in vivo; settings: for Motor activity, open field test: 2 and 22 h after LPS
Description: Prior to the experiment, C57BL/6J mice were randomized according to body weight and motor activity in an open field test. […] Animals of the control group were injected with an equal volume of the vehicle. Animals were anesthetized with isoflurane inhalation until the breathing rate decreased 1 h later. Mice were suspended by the front incisors on an inclined surgical table; the tongue was pulled out with narrow curved tweezers, and 1 mg/mL of E. coli O127:B8 LPS (Sigma-Aldrich, Israel) in 1 mL/kg sterile saline was injected into the back of the oropharynx to allow aspiration. Intact animals received an equal volume of sterile saline in a similar way.
The open field test was performed with the NPO “Open Science” (Russia) arena of 44 cm diameter and 32 cm wall height under 300 lux lighting as reported by us previously.
Mice were anesthetized with 500 mg/kg chloral hydrate (Sigma-Aldrich, Germany) intraperitoneally 24 h after LPS administration. Blood and bronchoalveolar lavage (BAL) sampling was performed as described in [13]. Leukocyte counts and the lung permeability index were determined as described by us previously.
Histological and immunohistological assessment of tissue sections was performed in a semi-quantitative way on paraffin sections after hematoxylin and eosin staining with a light microscope (Zeiss, Germany) with double-blinding. The degree of inflammation was determined as previously reported.
Lung injury was assessed 24 h later based on behavioral, biochemical, cytological, and morphological alterations.

[11] = dexamethasone 5 mg/kg i.p., 24 h after LPS
[12] = 4a 50 mg/kg (30 mg/kg in source) i.p.
[13] = 4a 50 mg/kg (30 mg/kg in source) i.p., 24 h after LPS

T1 sequence (P23791 whole entry): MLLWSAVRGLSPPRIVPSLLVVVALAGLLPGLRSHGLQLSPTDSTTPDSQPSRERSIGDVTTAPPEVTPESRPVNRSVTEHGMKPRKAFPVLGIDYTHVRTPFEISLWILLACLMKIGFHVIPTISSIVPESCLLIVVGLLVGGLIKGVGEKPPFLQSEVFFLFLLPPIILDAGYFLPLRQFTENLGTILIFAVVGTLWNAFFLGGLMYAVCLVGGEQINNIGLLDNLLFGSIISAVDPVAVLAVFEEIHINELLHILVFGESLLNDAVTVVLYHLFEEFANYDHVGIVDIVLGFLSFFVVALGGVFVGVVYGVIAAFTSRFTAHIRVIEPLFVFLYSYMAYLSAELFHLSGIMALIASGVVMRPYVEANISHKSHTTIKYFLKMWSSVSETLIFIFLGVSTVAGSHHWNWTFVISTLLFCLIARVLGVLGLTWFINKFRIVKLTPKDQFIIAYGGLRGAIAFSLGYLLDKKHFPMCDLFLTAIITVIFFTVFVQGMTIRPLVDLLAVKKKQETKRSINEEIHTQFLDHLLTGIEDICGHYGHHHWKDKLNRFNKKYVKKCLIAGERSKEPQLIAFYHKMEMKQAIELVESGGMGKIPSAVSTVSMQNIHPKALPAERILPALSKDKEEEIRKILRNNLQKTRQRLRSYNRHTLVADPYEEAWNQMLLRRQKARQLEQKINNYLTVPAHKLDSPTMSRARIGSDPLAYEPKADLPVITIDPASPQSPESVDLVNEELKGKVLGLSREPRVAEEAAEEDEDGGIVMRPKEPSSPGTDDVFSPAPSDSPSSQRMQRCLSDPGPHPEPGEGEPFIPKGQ

IC50 [2] [µM] | inhibition at 0.01 µM ([5]; rabbit platelets) [%] | IC50 [1] [µM] | melting point [°C] | Compound | CC50 [3] [µM] | inhibition at 100 µM [6] [%] | Max IOP Reduction [7] [%] | also measured
> 100 | – | – | – | N=C(N)NC(=O)c1cnn(-c2cccc3ncccc23)c1C1CC1 [Zoniporide, zoniporide, reference compound] | 407 ± 27.6 | – | – | EC50 ([1]; printed as EC50 in the IC50 column, read-out: NO Synthesis EC50 ± SE): 15.6 µM
– | – | – | – | CN(C)CCC=C1c2ccccc2CCc2ccccc21 [Amitriptyline, amitriptyline] | – | – | – | Immobilization Time ([4]; 10 mg/kg): 50.2 ± 12.71 s
> 100 | 37.2 ± 5.97 | > 100 | 336 to 338 | N=C(N)NC(=O)Cn1c(=O)c2ccccc2n(CC(=O)NC(=N)N)c1=O [Compound 3a, 2,2’-(2,4-Dioxoquinazoline-1,3(2H,4H)-diyl)bis(N-carbamimidoylacetamide)] | > 100 | 44.3 ± 14.3 | 10.08 ± 5.8 | NHE-1 IC50 ([5]; rabbit platelets): nanomolar range; IOP-lowering activity reduction relative to 4a [7]: 3 fold
64.8 ± 4.31 | 16.2 ± 3.75 | 71 ± 4.89 | > 400 | Nc1nnc(Cn2c(=O)c3cc(Br)ccc3n(Cc3nnc(N)[nH]3)c2=O)[nH]1 [Compound 4b, 1,3-Bis[(5-amino-4H-1,2,4-triazol-3-yl)methyl]-6-bromoquinazoline-2,4(1H,3H)-dione] | > 100 | 47.4 ± 8.9 | 15.45 ± 9.39 | IOP-lowering activity reduction relative to 4a [7]: 2 fold; Immobilization Time ([4]; 4.9 mg/kg): 168.2 ± 19.52 s
– | – | – | – | CC(=O)Oc1ccccc1C(=O)O [Acetylsalicylic acid, acetylsalicylic acid, reference compound] | – | 31.6 ± 4.6 | – | –
0.003 ± 0.001 | – | 0.003 ± 0.001 | – | C[C@@H]1C[C@H]2[C@@H]3CCC4=CC(=O)C=C[C@]4(C)[C@@]3(F)[C@@H](O)C[C@]2(C)[C@@]1(O)C(=O)CO [Dexamethasone, dexamethasone, reference compound] | > 100 | – | – | Cell viability (LDH assay) [8]: did not influence cell viability; Mean number of phagocytosed particles per cell ([9]; 72 h of incubation): 59%; Phagocytic activity ([9]; 72 h of incubation): 41 % from control; Macrophage spreading (visually scored) [9]: more evident; Exploratory activity, open field test ([10]; dexamethasone 5 mg/kg i.p.): comparably improved exploratory activity; Motor activity, open field test ([10]; dexamethasone 5 mg/kg i.p.): reduced the LPS-induced motor and behavioral alterations; CD68+ macrophage accumulation in lung tissue (immunostaining) [10, 11]: significantly reduced this phenomenon; Plasma IL-6 [10, 11]: significantly reduced plasma IL-6; Segmented neutrophils in BAL [10, 11]: significantly ameliorated the accumulation of segmented neutrophils
> 100 | 10.2 ± 3.72 | > 100 | > 400 | N=C(N)NC(=O)Cn1c(=O)c2cc(Br)ccc2n(CC(=O)NC(=N)N)c1=O [Compound 3b, 2,2’-(6-Bromo-2,4-dioxoquinazoline-1,3(2H,4H)-diyl)bis(N-carbamimidoylacetamide)] | > 100 | 46.4 ± 9.2 | 24.17 ± 5.05 | –
– | – | – | – | CN(C)CCCN1c2ccccc2CCc2ccccc21 [Imipramine, imipramine] | – | – | – | Immobilization Time ([4]; 8 mg/kg): 112.5 ± 20.56 s
51.8 ± 1.65 | 29.4 ± 4.4 | 73 ± 7.83 | 314 to 318 | Nc1nnc(Cn2c(=O)c3ccccc3n(Cc3nnc(N)[nH]3)c2=O)[nH]1 [Compound 4a, 1,3-Bis[(5-amino-4H-1,2,4-triazol-3-yl)methyl]quinazoline-2,4(1H,3H)-dione] | > 100 | 39.3 ± 11.9 | 28.25 ± 7.92 | IC50 ([5]; rabbit platelets): 0.324 µM; NHE-1 potency relative to amiloride ([5]; ratio of IC50 vs amiloride): exceeding amiloride by four times; Immobilization Time ([4]; 4.0 mg/kg): 164.4 ± 23.19 s; Cell viability (LDH assay) [8]: slightly decreased; Decrease of the mean number of phagocytosed particles ([9]; 72 h of incubation): 23%; Phagocytic activity ([9]; 72 h of incubation): insignificantly influenced; Macrophage spreading (visually scored) [9]: marginally reduced spreading; Exploratory activity, open field test [10, 12]: comparably improved exploratory activity; Motor activity, open field test [10, 12]: restored the motor activity of animals; CD68+ macrophage accumulation in lung tissue (immunostaining) [10, 13]: effectively limited LPS-induced inflammation; Lung tissue histology (hematoxylin and eosin) [10, 13]: reduced LPS-induced inflammation in mouse lung tissue; Plasma IL-6 [10, 13]: significantly reduced plasma IL-6; Pulmonary (alveolar) vessel permeability [10, 13]: preserved pulmonary vessels’ permeability; Segmented neutrophils in BAL [10, 13]: significantly ameliorated the accumulation of segmented neutrophils; also recorded: most pronounced inhibition of the neutrophil migration
– | 5.39 ± 1.82 | 0.62 ± 0.05 | – | N=C(N)NC(=O)c1nc(Cl)c(N)nc1N [Amiloride, amiloride, reference compound] | > 100 | 67.6 ± 1 | 18.39 ± 14.58 | IC50 ([5]; rabbit platelets): 1.23 µM; Immobilization Time ([4]; 2.6 mg/kg): 172.7 ± 8.54 s
